pIC50: −log10 of the molar value.
Biological target: T1, MST1 (Homo sapiens, UniProt Q13043)
T1 construct: purchased Carna Biosciences
T1 sequence (Q13043 1-487): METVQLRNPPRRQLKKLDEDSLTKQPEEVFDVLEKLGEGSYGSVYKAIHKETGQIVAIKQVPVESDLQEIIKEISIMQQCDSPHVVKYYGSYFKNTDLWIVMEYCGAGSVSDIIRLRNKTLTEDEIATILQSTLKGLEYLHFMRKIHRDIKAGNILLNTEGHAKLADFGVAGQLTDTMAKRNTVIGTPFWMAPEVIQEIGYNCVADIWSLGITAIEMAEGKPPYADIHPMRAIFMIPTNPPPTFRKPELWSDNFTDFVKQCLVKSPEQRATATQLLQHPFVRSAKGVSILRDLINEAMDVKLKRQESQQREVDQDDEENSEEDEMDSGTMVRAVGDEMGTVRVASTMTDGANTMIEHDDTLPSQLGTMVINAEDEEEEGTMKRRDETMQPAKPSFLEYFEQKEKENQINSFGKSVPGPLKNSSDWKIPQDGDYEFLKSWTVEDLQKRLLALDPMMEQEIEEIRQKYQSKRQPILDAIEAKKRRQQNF
Assay: cell-free kinase assay
Type: biochemical
From the text: We investigated the potency and selectivity of BI 10N against 56 kinases using a cell-free assay (Table 8A).
The selectivity of this inhibitor was investigated by testing the potency of the inhibitor at two concentrations with 53 kinases by Carna Biosciences (MA) (Table 2).

SMILES: C[C@]12O[C@H](C[C@]1(O)C(=O)O)n1c3ccccc3c3c4c(c5c6ccccc6n2c5c31)CNC4=O [K252b]
- pIC50 (ATP concentration at approximately the Km for ATP): 8.46
- pIC50 (Table 2, by Carna Biosciences): 8.46
